Data taken from patent US6566064B1, “Method for anticipating sensitivity to medicine for osteoporosis” (Nipro Corporation, priority 1999, dated 2003).
Like-named read-outs stand apart in the source and are kept apart here.

How the values were obtained:
[1] = test system: Japanese females after menopause; experiment: Change in bone mineral density after administration of a medicine, by VDR/ER/ApoE3 genotype (Reference Example 2); type: in vivo, human
Experimental: (§1) The 177 Japanese females after the polymorphism analysis as described above were each measured for bone mineral density. Then, one of vitamin D, estrogen, and vitamin K2 was administered to the patients for 6 months. The administration amount was 1μg/day for vitamin D, 0.312 mg/day for estrogen, and 45 mg/day for vitamin K2. After 6 months, the bone mineral density was measured again and an index of change in bone mineral density between before and after the administration of a medicine was obtained. A value obtained by subtracting an anticipated value of therapeutic effect of each medicine (total average therapeutic effect on randomly sampled patients; Table 3) from an average index of change in bone mineral density for each genotype was defined as sensitivity to a medicine for each genotype.
Blood was collected from 167 Japanese females after menopause randomly selected and blood cells were fractionated and genome DNA was extracted and purified by conventional methods. A VDR gene fragment, an ER gene fragment and an ApoE gene fragment were separately amplified using the genome DNA as a template and the same primer pairs as in Reference Example 1 under the same amplification conditions.
After treating the gene amplification reaction mixtures with a restriction enzyme respectively, the reaction mixtures were subjected to agarose gel electrophoresis. In the case where each amplification product was cleaved with the restriction enzyme at the polymorphism site, bands of 4.6 kbp and 2.6 kbp were detected for the VDR amplification product, bands of 900 bp and 400 bp were detected for the ER amplification product, and bands of 72, 48, 38, 35, 19, 17, and 15 bp were detected for the ApoE amplification product.
To detect ApoE3 type alleles, the amplification products were treated with Hha I, and were subjected to agarose electrophoresis gel. After the electrophoresis, the gels were dyed with ethidium bromide and polymorphisms of the ApoE genes were discriminated based on the band patterns and ApoE3 types identified as a combination of bands as below described.
The 8 polymorphism groups were classified (Table 4).

[2] = test system: Japanese females after menopause; experiment: Change in bone mineral density after 6 month administration of a medicine, by VDR/ER/ApoE4 genotype (Reference Example 1); type: in vivo, human; details: for Average therapeutic effect (%) - Anticipated therapeutic effect (%) / Anticipated therapeutic effect value (index of change in bone mineral density) after 6 month administration of a medicine, Average: 6 months; for Anticipated therapeutic effect value (index of change in bone mineral density) after 6 month administration of a medicine, Average: total average on randomly sampled patients, vitamin D 1 μg/day, estrogen 0.312 mg/day, vitamin K2 45 mg/day
Text: In the present invention, the pluralities of remedies for osteoporosis are preferably vitamin D, estrogen, and vitamin K2. Here, the sensitivity to a remedy for osteoporosis means the degree of therapeutic effect of the remedy on osteoporosis. That is, in the case where a medicine A is higher in therapeutic effect than a medicine B in a patient, “the sensitivity of the patient to the medicine A is higher than the sensitivity to the medicine B”. In the present invention, using a change in bone mineral density before and after administration of a medicine as an index of sensitivity, it is defined that the greater the value of “index of change in bone mineral density”−“index of change in anticipated bone mineral density”, the higher is the sensitivity to the medicine.
Blood was collected from 177 Japanese females after menopause randomly selected and blood cells were fractionated and genome DNA was extracted and purified by conventional methods. A VDR gene fragment, an ER gene fragment, and an ApoE gene fragment were separately amplified using the genome DNA as a template and the following primer pairs.
The PCR conditions were denaturation: 94° C., 60 seconds; annealing: 62° C., 60 seconds; elongation: 72° C., 60 seconds (30 cycles) for the VDR gene, denaturation: 94° C., 30 seconds; annealing: 65° C., 30 seconds; elongation: 72° C., 30 seconds (30 cycles) for the ER gene, and denaturation: 94° C., 30 seconds; annealing: 61° C., 40 seconds; elongation: 72° C., 90 seconds (30 cycles) for the ApoE gene. This PCP amplification gave a VDR gene fragment of 7.2 kbp, an ER gene fragment of 1.3 kbp, and an ApoE gene fragment of 244 bp containing polymorphism sites, respectively. After treating a VDR gene amplification reaction mixture with Bsm I, an ER gene amplification reaction mixture with Xba I, and an ApoE gene amplification reaction mixture with Hha I, the reaction mixtures were subjected to agarose gel electrophoresis. In the case where each amplification product was cleaved with the restriction enzyme at the polymorphism site, bands of 4.6 kbp and 2.6 kbp were detected for the VDR amplification product, bands of 900 bp and 400 bp were detected for the ER amplification product, and bands of 72,48, 38, 35, 19, 17, and 15 bp were detected for the ApoE amplification product.
The band of 72 bp was not detected in the case where there is no typE4 (that is, 4(−)). After the electrophoresis, the gels were dyed with ethidium bromide and polymorphisms of the VDR, ER, and ApoE genes were discriminated based on the band patterns and classified into 8 polymorphism groups (Table 3).
as §1

[3] = VDR genotype A (not cleaved with Apa I) compared with genotype a; cited from earlier work
[4] = DBP genotype group of the GC2-2 type compared with the other groups; cited from earlier work
[5] = cited from earlier work

Compound	Average therapeutic effect (%) - Anticipated therapeutic effect (%) ([1]; genotype B(+)X(+)3(+))	Average therapeutic effect (%) - Anticipated therapeutic effect (%) ([1]; genotype B(+)X(−)3(+))	Average therapeutic effect (%) - Anticipated therapeutic effect (%) ([1]; genotype B(+)X(−)3(−))	Average therapeutic effect (%) - Anticipated therapeutic effect (%) ([1]; genotype B(−)X(+)3(+))	Average therapeutic effect (%) - Anticipated therapeutic effect (%) ([1]; genotype B(−)X(+)3(−))	Average therapeutic effect (%) - Anticipated therapeutic effect (%) ([1]; genotype B(−)X(−)3(+))	Average therapeutic effect (%) - Anticipated therapeutic effect (%) ([1]; genotype B(−)X(−)3(−))	Average therapeutic effect (%) - Anticipated therapeutic effect (%) ([2]; genotype B(+)x(+)4(−))	Average therapeutic effect (%) - Anticipated therapeutic effect (%) ([2]; genotype B(+)x(−)4(+))	Average therapeutic effect (%) - Anticipated therapeutic effect (%) ([2]; genotype B(+)x(−)4(−))	Average therapeutic effect (%) - Anticipated therapeutic effect (%) ([2]; genotype B(−)X(+)4(+))	Average therapeutic effect (%) - Anticipated therapeutic effect (%) ([2]; genotype B(−)X(+)4(−))	Average therapeutic effect (%) - Anticipated therapeutic effect (%) ([2]; genotype B(−)X(−)4(+))	Average therapeutic effect (%) - Anticipated therapeutic effect (%) ([2]; genotype B(−)X(−)4(−))	Anticipated therapeutic effect value (index of change in bone mineral density) after 6 month administration of a medicine, Average [2]	further results
vitamin D	−0.6927%	0.02042%	2.234%	1.643%	−3.114%	0.4017%	1.498%	−1.75%	−0.27%	−0.66%	0.34%	0.37%	0.56%	0.05%	1.15%	Average therapeutic effect (%) - Anticipated therapeutic effect (%) ([1]; genotype B(+)X(+)3(−)): 0.461%; Average therapeutic effect (%) - Anticipated therapeutic effect (%) ([2]; genotype B(+)x(+)4(+)): 0.46%; sensitivity to the medicine relative to the other two medicines ([2]; genotype [B(−) X(−) 4(+)]): higher than the sensitivity to vitamin K2 and the sensitivity to estrogen; sensitivity to vitamin D [3]: more sensitive; sensitivity to vitamin D [4]: higher in sensitivity; sensitivity to vitamin D ([5]; VDR genotype AAB compared with aabb): significantly lower
estrogen	0.4144%	−0.8961%	0.03227%	3.741%	4.514%	−0.07099%	−1.151%	1.74%	−1.07%	−0.93%	7.87%	2.78%	−2.52%	−0.94%	3.26%	sensitivity to the medicine relative to the other two medicines ([2]; genotypes [B(−) X(+) 4(−)], [B(−) X(+) 4(+)], [B(+) X(+) 4(−)] and [B(+) X(+) 4(+)]): higher than the sensitivity to vitamin D and the sensitivity to vitamin K2; sensitivity to estrogen ([5]; ER genotype PpXx compared with other genotype groups): significantly higher
CC(C)=CCC/C(C)=C/CC/C(C)=C/CC/C(C)=C/CC1=C(C)C(=O)c2ccccc2C1=O [Vitamin K2, vitamin K2]	3.248%	1.852%	–	−0.2083%	–	−0.8443%	−2.855%	1.46%	−0.59%	1.08%	–	0.60%	−2.68%	0.68%	0.59%	sensitivity to the medicine relative to the other two medicines ([2]; genotypes [B(−) X(−) 4(−)] and [B(+) X(−) 4(−)]): higher than the sensitivity to vitamin D and the sensitivity to estrogen; sensitivity to vitamin K2 ([5]; ApoE4(+) group compared with ApoE4(−) group): significantly lower
